Laboratory results as given in publication PMC9061999, “Application of the Adverse Outcome Pathway Concept to In Vitro Nephrotoxicity Assessment: Kidney Injury due to Receptor-Mediated Endocytosis and Lysosomal Overload as a Case Study” (Frontiers in Toxicology, 2022).

Tested on: NRK-52E cells
Assay: High content imaging of lysosomes and nuclei (LysoView 633 / SYTO 16)
Format: cell-based, rat
Method: For high content imaging, NRK-52E and RPTEC/TERT1 cells were cultivated in µ-clear half well area microtiter plates (Greiner) according to the protocol described for the cytotoxicity assay with slight modification. Briefly, NRK-52E cells were seeded at 5,000 cells in 100 µL growth medium per well and were incubated under standard growth conditions for 48 h prior to treatment. RPTEC/TERT1 cells were seeded at 15,000 cells in 100 µL growth medium per well and incubated under standard growth conditions for 7–8 days, until cells reached confluence and started to differentiate. This was indicated by the formation of three-dimensional structures referred to as domes which were identified by regular microscopic inspection of the plates. Only differentiated cell cultures with detectable domes were assayed. Cells of both cell lines were treated with serially diluted Polymyxin B sulfate (concentration range 7.8 to 2,000 µM) for 1, 2, 4, 6, or up to 24 h. The assay was carried out on three biological replicates defined as three different non-consecutive passages of the cell culture. Each biological replicate at each treatment concentration was assayed in triplicate wells per plate.
Following treatment, cells were stained with two different combinations of fluorescent dyes: NRK-52E cells with 50 pg/μL LysoView™ 633 (Biotium) and 1 µM SYTO 16 (Thermo Scientific), respectively, for lysosomes and nuclei; RPTEC/TERT1 cells with 10 nM LysoTracker™ Red (Thermo Scientific) and 10 ng/μL Hoechst 33342 (Merck-Sigma Aldrich), respectively, for lysosomes and nuclei. For each cell line a staining solution was obtained by mixing the lysosomes and nuclei dyes in cell culture medium at the concentrations indicated above. […]
Images were acquired with a fully automated fluorescence confocal Opera™ QEHS system (PerkinElmer, United Kingdom) using a ×40 air UPlanApo objective (Olympus) with 0.85 numerical aperture. […]
The images were analyzed by custom-made image analysis scripts either with the imaging analysis software Acapella (version 2.8 PerkinElmer) or Columbus (version 2.4.0 PerkinElmer). […]

Polymyxin B
Treatment time at which changes in nuclei area and nuclei intensity appeared (NRK-52E, 250 µM): 20 h
Treatment time at which lysosomal effects with nuclear changes first appeared (NRK-52E, 500 µM): 12 h
Treatment time from which lysosomal effects were accompanied by nuclear changes (NRK-52E, 1,000 and 2000 µM): 8 h
